From patent US20230339991A1, “HYPOXIA-ACTIVATED DNA ALKYLATING AGENT AND MEDICAL USE THEREOF” (ASCENTAWITS PHARMACEUTICALS, LTD., priority 2020, published 2023)
Where two headings read alike, the source gives them in different places.

Tests used:
PSN-1 cells = assay: Clonogenic assay, PSN-1; assay type: cell-based, human; conditions: for IC90: Homo sapiens, PSN1, 3 h
Protocol: (§1) The following PSN-1 cells, PANC1 cells, MiaPaCa-2 cells, H460 cells, DLD-1 WT (wild type) cells, DLD-1 BRCA2 KO (BRCA2 deletion) cells were seeded in 10 cm vitreous cell culture plates at specific cell numbers and incubated for 2 days at 37° C. and under the conditions of 5% CO2, 95% air and 100% relative humidity. On day 3, test compounds TH302 or AST-002-P2 at the specific concentrations were added to the cells, and incubated for 3 hours together with the cells under normoxic (21% O2) and hypoxic conditions (<0.01% O2), respectively. After cells were stimulated by compounds, the cells were washed once with 1×PBS and digested into single cells with pancreatic enzymes for cell counting. The above cells in specific cell numbers were reseeded in a new culture plate and cultured for 7 days to perform single cell colony formation. When single cells in compound culture plates stimulated under normoxic conditions proliferated to about 50 cells, the cultures were removed and stained with 0.5% crystal violet for 40 minutes. After staining, cells were counted for colonies using Colony Counter (VWR) and the IC90 was calculated.

H460 cells = assay: Clonogenic assay, H460; assay type: cell-based, human; conditions: for IC90: Homo sapiens, NCI-H460, 3 h
Protocol: as §1

CYP450R enzyme = biological target: T1, CYP450R enzyme (Homo sapiens, UniProt P16435); assay: Hypoxia-dependent reduction experiments; assay type: biochemical; conditions: NADPH and CYP 450R enzymes
T1 sequence (P16435 1-677): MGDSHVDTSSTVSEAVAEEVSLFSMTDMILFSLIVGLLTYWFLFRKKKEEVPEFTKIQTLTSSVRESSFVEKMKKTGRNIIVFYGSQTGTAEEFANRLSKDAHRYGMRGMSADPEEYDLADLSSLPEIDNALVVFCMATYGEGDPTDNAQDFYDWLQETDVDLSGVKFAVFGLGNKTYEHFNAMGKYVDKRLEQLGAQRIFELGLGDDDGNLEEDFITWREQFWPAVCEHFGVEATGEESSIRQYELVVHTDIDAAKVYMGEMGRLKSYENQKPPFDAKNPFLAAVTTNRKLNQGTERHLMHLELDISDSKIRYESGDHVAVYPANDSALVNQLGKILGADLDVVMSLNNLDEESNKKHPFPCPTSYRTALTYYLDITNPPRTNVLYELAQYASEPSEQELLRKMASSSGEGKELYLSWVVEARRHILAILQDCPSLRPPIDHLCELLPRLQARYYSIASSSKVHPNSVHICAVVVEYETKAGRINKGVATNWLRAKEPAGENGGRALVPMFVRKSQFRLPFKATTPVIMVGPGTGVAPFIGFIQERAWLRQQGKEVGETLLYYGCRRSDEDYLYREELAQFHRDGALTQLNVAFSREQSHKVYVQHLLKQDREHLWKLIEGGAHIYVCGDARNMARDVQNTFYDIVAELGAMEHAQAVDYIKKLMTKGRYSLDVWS
Protocol: The ingredients were added to each test tube without the addition of NADPH. Then 50 μl of sample from condition B was transferred to 100 μl acetonitrile (T=0). For samples to be tested under hypoxic conditions, the test tubes were placed in an hypoxic chamber (BACTRON anaerobic/environmental chamber). The reaction was initiated by adding NADPH to test tubes A and C and the sample was then placed at 37° C. For samples to be tested in air, the test tubes were placed in a hot plate at 37° C. After 30 minutes and 2 hours of incubation, 50 μl of samples were taken from each test tube and mixed with 100 μl acetonitrile. Any protein precipitate was removed by spinning all test tubes and placed into HPLC vials for analysis. The results were compared to the calibration curve of the real standard.

[1] = 21% O2, read-out: IC90 Normoxia
[2] = <0.01% O2, read-out: IC90 Hypoxia

`Cn1c(COP(=O)(NCCBr)NCCBr)cnc1[N+](=O)[O-]` [TH-302, Evofosfamide] was tested, and the IC90 (PSN-1 cells; [1]) was 30.5 µM, the IC90 (PSN-1 cells; [2]) was 0.164 µM and the HCR (PSN-1 cells; IC90 ratio normoxic/N2) was 186. The IC90 (H460 cells; [1]) was 15.6 µM, the IC90 (H460 cells; [2]) was 0.021 µM and the HCR (H460 cells; IC90 ratio normoxic/N2) was 741. The “reduction rate compared (compound A vs TH-302)” value (CYP450R enzyme) was “similar”.
